Experimental data reported in ChEMBL document CHEMBL3351686, “Facile and diastereoselective synthesis of 3,2'-spiropyrrolidine-oxindoles derivatives, their molecular docking and antiproliferative activities” (2015).
In brackets after ≈: the same amount, converted by molar mass.

Assays:
Staphylococcus aureus [1] = assay: Antibacterial activity against Staphylococcus aureus MTCC 96 assessed as inhibition of visual growth after 24 hrs; assay type: functional; conditions: MTCC 96, 24 h
Candida albicans [2] = assay: Antifungal activity against Candida albicans MTCC 227 assessed as inhibition of visual growth after 48 to 72 hrs; assay type: functional
Shigella flexneri [3] = assay: Antibacterial activity against Shigella flexneri MTCC 1457 assessed as inhibition of visual growth after 24 hrs; assay type: functional; conditions: MTCC 1457, 24 h
Staphylococcus aureus [4] = assay: Antibacterial activity against Staphylococcus aureus MTCC 96 assessed as zone of inhibition at 1 mg/disc after 24 hrs by disc diffusion method; assay type: functional
Staphylococcus aureus [5] = assay: Antibacterial activity against methicillin-resistant Staphylococcus aureus assessed as inhibition of visual growth after 24 hrs; assay type: functional
Micrococcus luteus [6] = assay: Antibacterial activity against Micrococcus luteus MTCC 106 assessed as inhibition of visual growth after 24 hrs; assay type: functional; conditions: MTCC 106, 24 h
Klebsiella aerogenes [7] = assay: Antibacterial activity against Enterobacter aerogenes MTCC 111 assessed as zone of inhibition at 1 mg/disc after 24 hrs by disc diffusion method; assay type: functional
Shigella flexneri [8] = assay: Antibacterial activity against Shigella flexneri MTCC 1457 assessed as zone of inhibition at 1 mg/disc after 24 hrs by disc diffusion method; assay type: functional
Micrococcus luteus [9] = assay: Antibacterial activity against Micrococcus luteus MTCC 106 assessed as zone of inhibition at 1 mg/disc after 24 hrs by disc diffusion method; assay type: functional
Malassezia pachydermatis [10] = assay: Antifungal activity against Malassezia pachydermatis assessed as zone of inhibition at 1 mg/disc after 48 hrs by disc diffusion method; assay type: functional
[11] = test system: Staphylococcus epidermidis; assay: Antibacterial activity against Staphylococcus epidermidis MTCC 3615 assessed as inhibition of visual growth after 24 hrs; assay type: functional; conditions: MTCC 3615, 24 h
Klebsiella pneumoniae [12] = assay: Antibacterial activity against Klebsiella pneumoniae MTCC 109 assessed as zone of inhibition at 1 mg/disc after 24 hrs by disc diffusion method; assay type: functional
Salmonella typhimurium [13] = assay: Antibacterial activity against Salmonella typhimurium MTCC 1251 assessed as zone of inhibition at 1 mg/disc after 24 hrs by disc diffusion method; assay type: functional, Salmonella enterica subsp. enterica serovar Typhimurium
Salmonella typhimurium [14] = assay: Antibacterial activity against Salmonella typhimurium MTCC 1251 assessed as inhibition of visual growth after 24 hrs; assay type: functional, Salmonella enterica subsp. enterica serovar Typhimurium; conditions: Salmonella enterica, MTCC 1251, 24 h
Staphylococcus aureus [15] = assay: Antibacterial activity against methicillin-resistant Staphylococcus aureus assessed as zone of inhibition at 1 mg/disc after 24 hrs by disc diffusion method; assay type: functional
Proteus vulgaris [16] = assay: Antibacterial activity against Proteus vulgaris MTCC 1771 assessed as inhibition of visual growth after 24 hrs; assay type: functional; conditions: MTCC 1771, 24 h
[17] = test system: Staphylococcus epidermidis; assay: Antibacterial activity against Staphylococcus epidermidis MTCC 3615 assessed as zone of inhibition at 1 mg/disc after 24 hrs by disc diffusion method; assay type: functional
Candida albicans [18] = assay: Antifungal activity against Candida albicans MTCC 227 assessed as zone of inhibition at 1 mg/disc after 48 hrs by disc diffusion method; assay type: functional
Klebsiella aerogenes [19] = assay: Antibacterial activity against Enterobacter aerogenes MTCC 111 assessed as inhibition of visual growth after 24 hrs; assay type: functional; conditions: MTCC 111, 24 h
Proteus vulgaris [20] = assay: Antibacterial activity against Proteus vulgaris MTCC 1771 assessed as zone of inhibition at 1 mg/disc after 24 hrs by disc diffusion method; assay type: functional
Malassezia pachydermatis [21] = assay: Antifungal activity against Malassezia pachydermatis assessed as inhibition of visual growth after 48 to 72 hrs; assay type: functional
Klebsiella pneumoniae [22] = assay: Antibacterial activity against Klebsiella pneumoniae MTCC 109 assessed as inhibition of visual growth after 24 hrs; assay type: functional; conditions: MTCC 109, 24 h

Structure (SMILES) | MIC (Staphylococcus aureus [1]) [µg/mL] | MIC (Candida albicans [2]) [µg/mL] | MIC (Shigella flexneri [3]) [µg/mL] | inhibition zone (IZ) (Staphylococcus aureus [4]) [mm] | MIC (Staphylococcus aureus [5]) [µg/mL] | MIC (Micrococcus luteus [6]) [µg/mL] | inhibition zone (IZ) (Klebsiella aerogenes [7]) [mm] | inhibition zone (IZ) (Shigella flexneri [8]) [mm] | inhibition zone (IZ) (Micrococcus luteus [9]) [mm] | MIC [11] [µg/mL] | inhibition zone (IZ) (Klebsiella pneumoniae [12]) [mm] | inhibition zone (IZ) (Salmonella typhimurium [13]) [mm] | MIC (Salmonella typhimurium [14]) [µg/mL] | inhibition zone (IZ) (Staphylococcus aureus [15]) [mm] | MIC (Proteus vulgaris [16]) [µg/mL] | inhibition zone (IZ) [17] [mm] | inhibition zone (IZ) (Candida albicans [18]) [mm] | MIC (Klebsiella aerogenes [19]) [µg/mL] | inhibition zone (IZ) (Proteus vulgaris [20]) [mm] | MIC (Klebsiella pneumoniae [22]) [µg/mL] | further results
N#C[C@]1(C(=O)c2c[nH]c3ccccc23)C2CCCN2[C@]2(C(=O)Nc3ccccc32)[C@@H]1c1cn(-c2ccccc2)nc1-c1ccccc1 (stereo partly specified) | 31.2 (≈ 50.8 µM) | 125 (≈ 203 µM) | 31.2 (≈ 50.8 µM) | 12 | 31.2 (≈ 50.8 µM) | 31.2 (≈ 50.8 µM) | 12 | 10 | 11 | 62.5 (≈ 102 µM) | 9 | 8 | 250 (≈ 407 µM) | 10 | 125 (≈ 203 µM) | 13 | 10 | 62.5 (≈ 102 µM) | 12 | 31.2 (≈ 50.8 µM) | inhibition zone (IZ) (Malassezia pachydermatis [10]): 8 mm; MIC (Malassezia pachydermatis [21]): 500 µg/mL (≈ 813 µM)
C=CCN1C(=O)[C@]2(c3ccccc31)[C@H](c1cn(-c3ccccc3)nc1-c1ccccc1)[C@@](C#N)(C(=O)c1c[nH]c3ccccc13)C1CCCN12 (stereo partly specified) | 125 (≈ 191 µM) | 250 (≈ 382 µM) | 250 (≈ 382 µM) |  | 250 (≈ 382 µM) | 250 (≈ 382 µM) |  |  |  | 125 (≈ 191 µM) | 9 | 10 | 500 (≈ 764 µM) |  | 250 (≈ 382 µM) |  |  | 250 (≈ 382 µM) | 10 | 500 (≈ 764 µM) | MIC (Malassezia pachydermatis [21]): 500 µg/mL (≈ 764 µM)
CN1C(=O)[C@]2(c3ccccc31)[C@H](c1cn(-c3ccccc3)nc1-c1ccccc1)[C@@](C#N)(C(=O)c1c[nH]c3ccccc13)C1CCCN12 (stereo partly specified) | 250 (≈ 398 µM) |  | 250 (≈ 398 µM) | 9 | 125 (≈ 199 µM) | 500 (≈ 795 µM) | 10 | 9 | 8 | 250 (≈ 398 µM) | 11 | 13 | 500 (≈ 795 µM) | 10 | 250 (≈ 398 µM) | 12 |  | 250 (≈ 398 µM) | 12 | 500 (≈ 795 µM) | 
C#CCN1C(=O)[C@]2(c3ccccc31)[C@H](c1cn(-c3ccccc3)nc1-c1ccccc1)[C@@](C#N)(C(=O)c1c[nH]c3ccccc13)C1CCCN12 (stereo partly specified) | 500 (≈ 766 µM) |  | 500 (≈ 766 µM) | 10 | 250 (≈ 383 µM) | 500 (≈ 766 µM) | 12 | 8 | 10 | 125 (≈ 191 µM) | 12 | 10 | 125 (≈ 191 µM) | 8 | 250 (≈ 383 µM) | 11 | 10 | 250 (≈ 383 µM) | 13 | 250 (≈ 383 µM) | inhibition zone (IZ) (Malassezia pachydermatis [10]): 9 mm
N#C[C@]1(C(=O)c2c[nH]c3ccccc23)C2CCCN2[C@]2(C(=O)Nc3ccc([N+](=O)[O-])cc32)[C@@H]1c1cn(-c2ccccc2)nc1-c1ccccc1 (stereo partly specified) | 125 (≈ 189 µM) | 250 (≈ 379 µM) | 500 (≈ 758 µM) | 11 | 500 (≈ 758 µM) | 500 (≈ 758 µM) | 10 | 8 | 8 | 250 (≈ 379 µM) | 9 | 9 | 250 (≈ 379 µM) | 9 | 125 (≈ 189 µM) | 12 | 11 | 250 (≈ 379 µM) | 9 | 250 (≈ 379 µM) | MIC (Malassezia pachydermatis [21]): 500 µg/mL (≈ 758 µM)
N#C[C@]1(C(=O)c2c[nH]c3ccccc23)C2CSCN2[C@]2(C(=O)Nc3ccccc32)[C@@H]1c1cn(-c2ccccc2)nc1-c1ccccc1 (stereo partly specified) | 500 (≈ 790 µM) | 1250 (≈ 1980 µM) | 500 (≈ 790 µM) | 14 | 500 (≈ 790 µM) | 500 (≈ 790 µM) | 13 | 8 | 11 | 500 (≈ 790 µM) | 10 | 11 | 500 (≈ 790 µM) | 8 | 500 (≈ 790 µM) | 13 | 9 | 500 (≈ 790 µM) | 10 | 500 (≈ 790 µM) | inhibition zone (IZ) (Malassezia pachydermatis [10]): 8 mm; MIC (Malassezia pachydermatis [21]): 250 µg/mL (≈ 395 µM)
C=CCN1C(=O)[C@]2(c3ccccc31)[C@H](c1cn(-c3ccccc3)nc1-c1ccccc1)[C@@](C#N)(C(=O)c1c[nH]c3ccccc13)C1CSCN12 (stereo partly specified) | 250 (≈ 372 µM) | 250 (≈ 372 µM) | 500 (≈ 743 µM) | 12 | 500 (≈ 743 µM) | 500 (≈ 743 µM) | 9 | 9 | 11 | 125 (≈ 186 µM) | 9 | 10 | 250 (≈ 372 µM) | 9 | 500 (≈ 743 µM) | 11 | 12 | 250 (≈ 372 µM) | 10 | 500 (≈ 743 µM) | inhibition zone (IZ) (Malassezia pachydermatis [10]): 10 mm
CCCCN1C(=O)[C@]2(c3ccccc31)[C@H](c1cn(-c3ccccc3)nc1-c1ccccc1)[C@@](C#N)(C(=O)c1c[nH]c3ccccc13)C1CSCN12 (stereo partly specified) | 250 (≈ 363 µM) | 125 (≈ 181 µM) | 500 (≈ 726 µM) | 8 | 500 (≈ 726 µM) | 250 (≈ 363 µM) | 9 |  | 10 | 250 (≈ 363 µM) | 9 | 9 | 250 (≈ 363 µM) |  | 500 (≈ 726 µM) | 10 |  | 500 (≈ 726 µM) |  | 500 (≈ 726 µM) | MIC (Malassezia pachydermatis [21]): 125 µg/mL (≈ 181 µM)
CC(=O)N1CCN(c2ccc(OCC3COC(Cn4ccnc4)(c4ccc(Cl)cc4Cl)O3)cc2)CC1 (stereo unspecified) [KETOCONAZOLE] | 6.25 (≈ 11.8 µM) | 25 (≈ 47 µM) | 6.25 (≈ 11.8 µM) | 14 | 6.25 (≈ 11.8 µM) | 6.25 (≈ 11.8 µM) | 22 | 30 | 26 | 6.25 (≈ 11.8 µM) | 20 | 18 | 30 (≈ 56.5 µM) | 30 |  | 14 | 28 | 25 (≈ 47 µM) | 30 | 6.25 (≈ 11.8 µM) | inhibition zone (IZ) (Malassezia pachydermatis [10]): 26 mm; MIC (Malassezia pachydermatis [21]): 25 µg/mL (≈ 47 µM)
